Data reported in ChEMBL document CHEMBL3132846 (Medchemcomm, 2014).
pIC50: −log10 of the molar value.

Experiments:
[1] = test system: BeWo; test: Cytotoxicity against human Bewo cells after 48 hrs by MTT assay; type: functional, cell-based
[2] = test system: SiHa; test: Cytotoxicity against human SiHa cells after 48 hrs by MTT assay; type: functional, cell-based
[3] = test system: HeLa; test: Cytotoxicity against human HeLa cells after 48 hrs by MTT assay; type: functional, cell-based
[4] = test system: A549; test: Cytotoxicity against human A549 cells after 48 hrs by MTT assay; type: functional, cell-based; settings: A549, 48 h
[5] = Cytotoxicity against human NCI-460 cells after 48 hrs by MTT assay; type: functional, cell-based; settings: NCI-460, 48 h
[6] = test system: HL-60; test: Cytotoxicity against human HL60 cells after 48 hrs by MTT assay; type: functional, cell-based; settings: HL-60, 48 h
[7] = test system: MCF7; test: Cytotoxicity against human MCF7 cells after 48 hrs by MTT assay; type: functional, cell-based; settings: MCF7, 48 h
[8] = Cytotoxicity against human Bel7402 cells after 48 hrs by MTT assay; type: functional, cell-based; settings: Bel-7402, 48 h
[9] = Cytotoxicity against human BGC823 cells after 48 hrs by MTT assay; type: functional, cell-based; settings: BGC-823, 48 h
[10] = test system: Ishikawa; test: Cytotoxicity against human Ishikawa cells after 48 hrs by MTT assay; type: functional, cell-based
[11] = Cytotoxicity against human JeKo1 cells after 48 hrs by MTT assay; type: functional, cell-based; settings: JeKo-1, 48 h
[12] = Cytotoxicity against human SKBR3 cells after 48 hrs by MTT assay; type: functional, cell-based; settings: SK-BR-3, 48 h
[13] = test system: CCRF S-180; test: Antitumor activity against mouse S180 cells allografted in ICR mouse assessed as tumor growth inhibition at 200 mg/kg, ig qd administered for 6 days relative to vehicle-treated control; type: functional; settings: CCRF S-180, po, 144 h, route intragastric, read-out: TGI
[14] = test system: Mus musculus; test: Toxicity in ICR mouse allografted with mouse S180 cells assessed as body weight loss at 200 mg/kg, ig qd administered for 6 days relative to vehicle-treated control; type: organism-based, CCRF S-180; design: dose 200 mg/kg, route intragastric; settings: in vivo, po, 144 h
[15] = test system: CCRF S-180; test: Antitumor activity against mouse S180 cells allografted in ICR mouse assessed as tumor growth inhibition at 30 mg/kg, ig qd administered for 6 days relative to vehicle-treated control; type: functional; settings: CCRF S-180, po, 144 h, route intragastric, read-out: TGI
[16] = test system: HUVEC; test: Cytotoxicity against HUVEC assessed as mitochondrial metabolism after 48 hrs by MTT assay; type: cell-based, Homo sapiens; settings: for pIC50: Homo sapiens, HUVEC
[17] = test system: HUVEC; test: Antiangiogenic activity against HUVEC assessed as inhibition of cell migration at 10 ug/ml after 24 hrs by wound healing assay relative to control; type: functional; settings: Homo sapiens
[18] = test system: HUVEC; test: Antiangiogenic activity against HUVEC assessed as inhibition of cell migration at 2.5 ug/ml after 24 hrs by wound healing assay relative to control; type: functional; settings: Homo sapiens

Structure (SMILES)	pIC50 [1]	pIC50 [2]	pIC50 [3]	pIC50 [4]	pIC50 [5]	pIC50 [6]	pIC50 [7]	pIC50 [8]	pIC50 [9]	pIC50 [10]	IC50 [11]	IC50 [12]	inhibition in vivo at 200 mg/kg [13]	Activity [14]	inhibition in vivo at 30 mg/kg [15]	pIC50 [16]	inhibition at 10 µg/mL [17]	inhibition at 2.5 µg/mL [18]	Activity ([16]; human, huvec)
COc1cccc(/C=N/NC(=O)Cc2cccc3c(=O)c4ccc(C)c(C)c4oc23)c1	4.07	< 4.00	< 4.00	4.29	< 4.00	< 4.00	< 4.00	< 4.00	< 4.00	< 4.00	–	–	–	–	–	–	–	–	–
COc1cc(/C=N/NC(=O)Cc2cccc3c(=O)c4ccc(C)c(C)c4oc23)cc(OC)c1OC	< 4.00	< 4.00	< 4.00	4.81	–	< 4.00	< 4.00	–	–	< 4.00	–	–	–	–	–	–	–	–	–
Cc1ccc2c(=O)c3cccc(CC(=O)Nc4ccc(F)c(Cl)c4)c3oc2c1C	< 4.00	4.49	4.03	4.59	–	4.12	< 4.00	–	–	< 4.00	–	–	–	–	–	–	–	–	–
CCCCNC(=O)Cc1cccc2c(=O)c3ccc(C)c(C)c3oc12	< 4.00	< 4.00	< 4.00	4.33	–	4.35	4.36	–	–	< 4.00	–	–	–	–	–	–	–	–	–
CCCCCC(=O)NNC(=O)Cc1cccc2c(=O)c3ccc(C)c(C)c3oc12	–	–	–	–	–	–	–	–	–	–	> 10 µg/mL	> 10 µg/mL	–	–	–	–	–	–	–
CCOC(=O)CNC(=O)Cc1cccc2c(=O)c3ccc(C)c(C)c3oc12	< 4.00	< 4.00	< 4.00	4.37	–	< 4.00	4.33	–	–	4.21	–	–	–	–	–	–	–	–	–
C/C=C/CC(=O)NNC(=O)Cc1cccc2c(=O)c3ccc(C)c(C)c3oc12	–	–	–	–	–	–	–	–	–	–	> 10 µg/mL	> 10 µg/mL	–	–	–	–	–	–	–
Cc1ccc2c(=O)c3cccc(CC(=O)Nc4ccc([N+](=O)[O-])c(C(F)(F)F)c4)c3oc2c1C	< 4.00	4.20	< 4.00	< 4.00	–	4.03	< 4.00	–	–	< 4.00	–	–	–	–	–	–	–	–	–
CCOC(=O)Cc1cccc2c(=O)c3ccc(C)c(C)c3oc12	–	–	–	–	–	–	–	–	–	–	–	–	4.04%	8.5%	–	–	–	–	–
CCC/C=C/C(=O)NNC(=O)Cc1cccc2c(=O)c3ccc(C)c(C)c3oc12	–	–	–	–	–	–	–	–	–	–	> 10 µg/mL	> 10 µg/mL	–	–	–	–	–	–	–
Cc1ccc2c(=O)c3cccc(CC(=O)Nc4ccc(Cl)cn4)c3oc2c1C	< 4.00	< 4.00	< 4.00	< 4.00	–	4.09	4.02	–	–	< 4.00	–	–	–	–	–	–	–	–	–
COc1ccc(/C=C\c2cc(OC)c(OC)c(OC)c2)cc1O [COMBRETASTATIN A4]	4.89	< 4.00	4.83	–	–	> 7.52	4.59	–	–	4.70	–	–	–	–	–	–	–	–	–
Cc1ccc2c(=O)c3cccc(CC(=O)O)c3oc2c1C [VADIMEZAN]	< 4.00	< 4.00	< 4.00	< 4.00	< 4.00	< 4.00	< 4.00	< 4.00	< 4.00	< 4.00	–	–	–	–	76.2%	< 4.70	–	–	–
Cc1ccc2c(=O)c3cccc(CC(=O)Nc4cccc(Cl)c4)c3oc2c1C	4.18	4.44	4.59	4.97	–	4.04	< 4.00	–	–	< 4.00	–	–	22.4%	10.7%	–	4.95	58.2%	32.6%	Dose-dependent effect
COc1ccc(/C=N/NC(=O)Cc2cccc3c(=O)c4ccc(C)c(C)c4oc23)cc1	< 4.00	< 4.00	< 4.00	< 4.00	–	< 4.00	< 4.00	–	–	4.04	–	–	–	–	–	–	–	–	–
Cc1ccc2c(=O)c3cccc(CC(=O)N/N=C/c4ccccc4O)c3oc2c1C	4.17	< 4.00	< 4.00	4.67	< 4.00	4.28	< 4.00	< 4.00	< 4.00	< 4.00	> 10 µg/mL	> 10 µg/mL	–	–	–	–	–	–	–
